Non-standard residues stand in square brackets, D forms with d. Residues, ends and D or L forms follow the SMILES beside them. No end group written: not given here. Bip = N[C@@H](Cc1ccc(-c2ccccc2)cc1)C(=O)O; dBip = N[C@H](Cc1ccc(-c2ccccc2)cc1)C(=O)O; Dip = N[C@H](C(=O)O)C(c1ccccc1)c1ccccc1
Assays:
Format in all cases: cell-based, human
HL-60/ADR = assay: In vitro cytotoxic activity, MTS assay; resistance index; details: HL-60/ADR vs sensitive HL-60 (doxorubicin resistance)
Method: (§1) Tumor cells were grown as adherent monolayers or as suspensions at 37° C. in a humidified atmosphere (5% CO2, 95% air). The culture medium was RPMI 1640 containing 2 mM L-glutamine (Lonza, Belgium) and supplemented with 10% fetal bovine serum (FBS, Lonza). For experimental use, the adherent cells were detached from the culture flask by a 5-minute treatment with trypsin-versene (Lonza), diluted in Hanks' medium without calcium or magnesium (Lonza) and neutralized by addition of complete culture medium. Cells were counted in a hemocytometer and their viability was assessed by 0.25% trypan blue exclusion.
(§2) Tumor cells were plated in 96-well flat-bottom microtitration plates (Nunc, Dutscher, Brumath, France) and incubated at 37° C. for 24 hours before treatment in 190 μl of drug-free culture medium supplemented or not with 10% FBS for adherent or suspension growing cell lines, respectively.
(§3) The adherent cell lines were washed once with 200 μl FBS-free culture medium before treatment. Tumor cells were incubated for 4 hours with 10 concentrations of compounds in ¼ dilution step with a top dose of 400 μM (range 4×10^−4 to 4×10^−10 M), with 1% (final concentration) Triton X-100 as positive control and FBS-free culture medium as negative control. The cells (190 μl) were incubated in a 200 μl final volume of FBS-free culture medium containing test substances at 37° C. under 5% CO2.
(§4) Three independent experiments were performed, each concentration being tested in quadruplicate. Control cells were treated with vehicle alone. At the end of treatments, the cytotoxic activity was evaluated by a MTS assay (see § 3.3).
(§5) Like MTT, MTS is bioreduced by cells into a formazan product that is directly soluble in culture medium without processing, unlike MTT.
(§6) At the end of the cells treatment, 40 μl of a 0.22 μm filtered freshly combined solution of MTS (20 ml at 2 mg/ml, Ref G1111, Batch 235897, Exp 03/2009, Promega, Charbonnières, France) and PMS (1 ml at 0.92 mg/ml, Ref P9625, Batch 065K0961, Sigma) in Dulbecco's Phosphate Buffered Saline (DPBS, Ref 17-513Q, Batch 6MB0152, Cambrex), were added in each well. Culture plates were incubated for 2 h at 37° C. Absorbency (OD) were measured at 490 nm in each well using VICTOR^3TM 1420 multilabeled counter (Wallac, PerkinElmer, Courtaboeuf, France).
(§7) [formula] • The OD values are the mean of 4 experimental measurements. • IC50: drug concentration to obtain a 50% inhibition of cell proliferation.
(§8) The dose-response curves were plotted using XLFit 3 (IDBS, United Kingdom). The IC50 determination values were calculated using the XLFit 3 software from semi-log curves. Individual IC50 determination values as well as mean and SD values were generated.
(§9) Resistance index was calculated using the following formula: […]
(§10) Resistance index was calculated for each compound for each couple of sensitive and resistant cell lines. Individual resistance index was calculated when IC50 values of both sensitive and corresponding resistant cell lines were determined within same experiment. In addition, resistance index was also calculated ratio of mean IC50 values obtained during three independent experiments.

MCF-7/mdr = MCF-7/mdr vs sensitive MCF-7 (doxorubicin resistance)
Method: as §1, §2, §3, §4, §5, §6, §7, §8, §9, §10

IGROV-1/CDDP = IGROV-1/CDDP vs IGROV-1 (cisplatin resistance)
Method: as §1, §2, §3, §4, §5, §6, §7, §8, §9, §10

CCRF-CEM/VLB = assay: Resistance index from MTS cytotoxicity; details: CCRF-CEM/VLB vs CCRF-CEM
Method: as §1, with “exclusion. […]” for “exclusion.”
Three independent experiments were performed, each concentration being tested in quadruplicate. […] At the end of treatments, the cytotoxic activity was evaluated by a MTS assay (see § 3.3). […]
as §6, with “Culture plates were incubated for 2 h at 37° C.” left out, “France). […]” for “France).”
as §9

A375 cells = assay: Confocal microscopy, fluorescence-labeled peptide internalization; details: 1.5 and 3 μM
Method: Fixed cells, fluorescence-labeled peptide-Subconfluential A375 cells were seeded at 8,000 cells/well as above, and transfected on the second day using the Lipofectamine LTX with Plus transfection reagents (Invitrogen) following the manufacturer's protocol. The mitochondria were labeled using the pDsRed2-Mito, and the nucleus was labeled using the GFP-Histon2B plasmid (Imaging Platform, University of Tromsø). A day after transfection, cells were washed twice with serum-free RPMI, and treated at different concentration and incubation periods with LTX-315 Pacific Blue or LTX-328 Pacific Blue.
Control cells were treated with unlabeled LTX-315 and also with serum-free RPMI only. After incubation, cells were fixed with 4% paraformaldehyde in PBS, and the wells were covered with Prolong Gold antifade (Invitrogen). Cells were further analyzed by use of a Leica TCS SP5 confocal microscope, with a […] objective. Pacific Blue, GFP and Ds Red were excited using UV, with 488 and 561 lasers, and fluorescence channels were sequentially detected using the following band passes: UV: 420-480 nm (with attenuation), 488: 501-550 nm and 561: 576-676 nm.

Compound | Resistance index (RI) (HL-60/ADR) | Resistance index (RI) (MCF-7/mdr) | Resistance index (RI) (IGROV-1/CDDP) | Resistance index (RI) (CCRF-CEM/VLB) | internalization of Pacific Blue-labeled peptide (A375 cells)
NCCCC[C@H](NC(=O)[C@H](Cc1c[nH]c2ccccc12)NC(=O)[C@H](CCCCN)NC(=O)[C@H](CCCCN)NC(=O)[C@@H](NC(=O)[C@H](Cc1c[nH]c2ccccc12)NC(=O)[C@H](CCCCN)NC(=O)[C@H](CCCCN)NC(=O)[C@@H](N)Cc1c[nH]c2ccccc12)C(c1ccccc1)c1ccccc1)C(N)=O [LTX-302, W-K-K-W-Dip-K-K-W-K-NH2] (H-WKKW[Dip]KKWK-NH2; N-terminus assumed) | 1.31 | 1.23 | 0.33 | – | –
NCCCC[C@H](NC(=O)[C@H](Cc1c[nH]c2ccccc12)NC(=O)[C@H](Cc1c[nH]c2ccccc12)NC(=O)[C@H](CCCCN)NC(=O)[C@H](CCCCN)NC(=O)[C@H](Cc1c[nH]c2ccccc12)NC(=O)[C@H](Cc1ccc(-c2ccccc2)cc1)NC(=O)[C@H](CCCCN)NC(=O)[C@@H](N)CCCCN)C(N)=O [LTX-313, K-K-Bip-W-K-K-W-W-K-NH2] (H-KK[Bip]WKKWWK-NH2; N-terminus assumed) | 1.16 | 1.24 | 0.49 | 0.76 | –
N=C(N)NCCC[C@H](NC(=O)[C@H](Cc1c[nH]c2ccccc12)NC(=O)[C@H](Cc1c[nH]c2ccccc12)NC(=O)[C@H](CCCNC(=N)N)NC(=O)[C@H](CCCNC(=N)N)NC(=O)[C@@H](NC(=O)[C@H](Cc1c[nH]c2ccccc12)NC(=O)[C@H](CCCNC(=N)N)NC(=O)[C@@H](N)CCCNC(=N)N)C(c1ccccc1)c1ccccc1)C(N)=O [LTX-320, R-R-W-Dip-R-R-W-W-R-NH2] (H-RRW[Dip]RRWWR-NH2; N-terminus assumed) | 0.90 | 1.19 | 0.49 | – | –
NCCCC[C@@H](N)C(=O)N[C@H](CCCCN)C(=O)N[C@H](Cc1ccc(-c2ccccc2)cc1)C(=O)N[C@H](Cc1c[nH]c2ccccc12)C(=O)N[C@H](CCCCN)C(=O)N[C@H](CCCCN)C(=O)N[C@H](Cc1c[nH]c2ccccc12)C(=O)N[C@H](Cc1c[nH]c2ccccc12)C(=O)N[C@H](CCCCN)C(N)=O [LTX-329, k-k-bip-w-k-k-w-w-k-NH2] (H-[dK][dK][dBip][dW][dK][dK][dW][dW][dK]-NH2; N-terminus assumed) | 0.80 | 1.07 | 0.46 | 0.76 | –
KAQ[Dip]QKQAW-NH2 [LTX-328, reference compound] | – | – | – | – | did not demonstrate any internalization

Source: patent US12239686B2, “Immune checkpoint inhibitor combinations” (LYTIX BIOPHARMA AS, priority 2014, dated 2025)
